In patent US9469650B2, “Melampomagnolide B derivatives” (BOARD OF TRUSTEES OF THE UNIVERSITY OF ARKANSAS, priority 2013, dated 2016):

Columns and labels:
[1] = system: ACHN; assay: panel of 60 human tumor cell lines, growth inhibition (Renal Cancer)
[2] = system: NCI-H226; assay: panel of 60 human tumor cell lines, growth inhibition (Non-Small Cell Lung Cancer); details: NCI-H226
[3] = system: MDA-MB-231/ATCC; assay: panel of 60 human tumor cell lines, growth inhibition (Breast Cancer); details: MDA-MB-231/ATCC
[4] = system: OVCAR-8; assay: panel of 60 human tumor cell lines, growth inhibition (Ovarian Cancer); details: OVCAR-8
[5] = system: SK-MEL-5; assay: panel of 60 human tumor cell lines, growth inhibition (Melanoma); details: 8K-MEL-5
[6] = system: MDA-MB-435; assay: as above; details: MDA-MB-435
[7] = system: CAKI-1
[8] = system: HOP-62; assay: panel of 60 human tumor cell lines, growth inhibition (Non-Small Cell Lung Cancer); details: HOP-62
[9] = system: U251; assay: panel of 60 human tumor cell lines, growth inhibition (CNS Cancer); details: U251
[10] = system: CCRF-CEM; assay: panel of 60 human tumor cell lines, growth inhibition (Leukemia)
[11] = system: T-47D
[12] = system: UO-31; assay: panel of 60 human tumor cell lines, growth inhibition (Renal Cancer); details: UO-31
[13] = system: M14; assay: panel of 60 human tumor cell lines, growth inhibition (Melanoma); details: M14
[14] = system: NCI-H460; assay: panel of 60 human tumor cell lines, growth inhibition (Non-Small Cell Lung Cancer); details: NCI-H460
[15] = system: HCC-2998; assay: panel of 60 human tumor cell lines, growth inhibition (Colon Cancer); details: HCC-2998
[16] = system: SK-OV-3; assay: panel of 60 human tumor cell lines, growth inhibition (Ovarian Cancer); details: SK-OV-3
[17] = system: 786-0; assay: panel of 60 human tumor cell lines, growth inhibition (Renal Cancer); details: 786-0
[18] = system: MCF7; assay: panel of 60 human tumor cell lines, growth inhibition (Breast Cancer); details: MCF7
[19] = system: LOX IMVI; assay: panel of 60 human tumor cell lines, growth inhibition (Melanoma)
[20] = system: SN12C; assay: panel of 60 human tumor cell lines, growth inhibition (Renal Cancer)
[21] = system: SR; assay: panel of 60 human tumor cell lines, growth inhibition (Leukemia)

C=C1C(=O)O[C@H]2[C@H]1CC/C(COC(=O)N1CCC(F)(F)CC1)=C\CC[C@@]1(C)O[C@@H]21 [JVM 2-66]
GI50 [1]: 1.79 µM | TGI [1]: 5.68E−6 | Percent Growth ([1]; Log10 Concentration −4.0): −83% | Percent Growth ([1]; Log10 Concentration −5.0): −25% | Percent Growth ([1]; Log10 Concentration −6.0): 75% | Percent Growth ([1]; Log10 Concentration −7.0): 93% | Percent Growth ([1]; Log10 Concentration −8.0): 103% | CC50 ([1]; read-out: LC50): 27.4 µM | TGI [2]: 4.35E−6 | Percent Growth ([2]; Log10 Concentration −4.0): −71% | Percent Growth ([2]; Log10 Concentration −5.0): −49% | Percent Growth ([2]; Log10 Concentration −6.0): 87% | Percent Growth ([2]; Log10 Concentration −7.0): 90% | Percent Growth ([2]; Log10 Concentration −8.0): 102% | GI50 [3]: 2.01 µM | TGI [3]: 6.59E−6 | Percent Growth ([3]; Log10 Concentration −4.0): −84% | Percent Growth ([3]; Log10 Concentration −5.0): −18% | Percent Growth ([3]; Log10 Concentration −6.0): 79% | Percent Growth ([3]; Log10 Concentration −7.0): 92% | Percent Growth ([3]; Log10 Concentration −8.0): 101% | GI50 [4]: 2.83 µM | TGI [4]: 1.01E−5 | Percent Growth ([4]; Log10 Concentration −4.0): −86% | Percent Growth ([4]; Log10 Concentration −6.0): 91% | Percent Growth ([4]; Log10 Concentration −7.0): 96% | Percent Growth ([4]; Log10 Concentration −8.0): 98% | GI50 [5]: 3.81 µM | TGI [5]: 1.50E−5 | Percent Growth ([5]; Log10 Concentration −4.0): −96% | Percent Growth ([5]; Log10 Concentration −5.0): 21% | Percent Growth ([5]; Log10 Concentration −6.0): 91% | Percent Growth ([5]; Log10 Concentration −7.0): 99% | Percent Growth ([5]; Log10 Concentration −8.0): 99% | GI50 [6]: 0.464 µM | TGI [6]: 1.89E−5 | Percent Growth ([6]; Log10 Concentration −4.0): −52% | Percent Growth ([6]; Log10 Concentration −5.0): 20% | Percent Growth ([6]; Log10 Concentration −6.0): 30% | Percent Growth ([6]; Log10 Concentration −7.0): 91% | Percent Growth ([6]; Log10 Concentration −8.0): 98% | CC50 [7]: 23.8 µM | GI50 [8]: 13.6 µM | TGI [8]: 2.81E−5 | Percent Growth ([8]; Log10 Concentration −4.0): −87% | Percent Growth ([8]; Log10 Concentration −5.0): 71% | Percent Growth ([8]; Log10 Concentration −6.0): 93% | Percent Growth ([8]; Log10 Concentration −7.0): 92% | Percent Growth ([8]; Log10 Concentration −8.0): 101% | TGI [9]: 2.66E−5 | Percent Growth ([9]; Log10 Concentration −4.0): −99% | Percent Growth ([9]; Log10 Concentration −5.0): 73% | Percent Growth ([9]; Log10 Concentration −6.0): 92% | Percent Growth ([9]; Log10 Concentration −7.0): 96% | Percent Growth ([9]; Log10 Concentration −8.0): 96% | GI50 [10]: 0.682 µM | TGI [10]: 3.41E−6 | Percent Growth ([10]; Log10 Concentration −4.0): −53% | Percent Growth ([10]; Log10 Concentration −5.0): −36% | Percent Growth ([10]; Log10 Concentration −6.0): 41% | Percent Growth ([10]; Log10 Concentration −7.0): 97% | Percent Growth ([10]; Log10 Concentration −8.0): 97% | CC50 [11]: > 100 µM | GI50 [12]: 1.99 µM | TGI [12]: 5.44E−6 | Percent Growth ([12]; Log10 Concentration −4.0): −88% | Percent Growth ([12]; Log10 Concentration −5.0): −30% | Percent Growth ([12]; Log10 Concentration −6.0): 84% | Percent Growth ([12]; Log10 Concentration −7.0): 86% | Percent Growth ([12]; Log10 Concentration −8.0): 80% | Percent Growth ([13]; Log10 Concentration −4.0): −85% | Percent Growth ([13]; Log10 Concentration −5.0): 8% | Percent Growth ([13]; Log10 Concentration −6.0): 85% | Percent Growth ([13]; Log10 Concentration −7.0): 87% | Percent Growth ([13]; Log10 Concentration −8.0): 96% | GI50 [14]: 13.3 µM | TGI [14]: 3.10E−5 | Percent Growth ([14]; Log10 Concentration −4.0): −69% | Percent Growth ([14]; Log10 Concentration −5.0): 67% | Percent Growth ([14]; Log10 Concentration −6.0): 99% | Percent Growth ([14]; Log10 Concentration −7.0): 101% | Percent Growth ([14]; Log10 Concentration −8.0): 100% | GI50 [15]: 6.24 µM | TGI [15]: 2.11E−5 | Percent Growth ([15]; Log10 Concentration −4.0): −77% | Percent Growth ([15]; Log10 Concentration −5.0): 37% | Percent Growth ([15]; Log10 Concentration −6.0): 101% | Percent Growth ([15]; Log10 Concentration −7.0): 91% | Percent Growth ([15]; Log10 Concentration −8.0): 96% | GI50 [16]: 16.2 µM | TGI [16]: 3.22E−5 | Percent Growth ([16]; Log10 Concentration −4.0): −83% | Percent Growth ([16]; Log10 Concentration −5.0): 85% | Percent Growth ([16]; Log10 Concentration −6.0): 100% | Percent Growth ([16]; Log10 Concentration −7.0): 92% | Percent Growth ([16]; Log10 Concentration −8.0): 100% | GI50 [17]: 3.67 µM | TGI [17]: 1.50E−5 | Percent Growth ([17]; Log10 Concentration −4.0): −81% | Percent Growth ([17]; Log10 Concentration −5.0): 17% | Percent Growth ([17]; Log10 Concentration −6.0): 93% | Percent Growth ([17]; Log10 Concentration −7.0): 91% | Percent Growth ([17]; Log10 Concentration −8.0): 97% | GI50 [18]: 1.62 µM | TGI [18]: 4.91E−6 | Percent Growth ([18]; Log10 Concentration −4.0): −75% | Percent Growth ([18]; Log10 Concentration −5.0): −32% | Percent Growth ([18]; Log10 Concentration −6.0): 72% | Percent Growth ([18]; Log10 Concentration −7.0): 83% | Percent Growth ([18]; Log10 Concentration −8.0): 89% | GI50 [19]: 2.23 µM | TGI [19]: 5.77E−6 | Percent Growth ([19]; Log10 Concentration −4.0): −89% | Percent Growth ([19]; Log10 Concentration −5.0): −29% | Percent Growth ([19]; Log10 Concentration −6.0): 92% | Percent Growth ([19]; Log10 Concentration −7.0): 93% | Percent Growth ([19]; Log10 Concentration −8.0): 96% | GI50 [20]: 2.72 µM | TGI [20]: 1.06E−5 | Percent Growth ([20]; Log10 Concentration −4.0): −89% | Percent Growth ([20]; Log10 Concentration −5.0): 3% | Percent Growth ([20]; Log10 Concentration −6.0): 86% | Percent Growth ([20]; Log10 Concentration −7.0): 94% | Percent Growth ([20]; Log10 Concentration −8.0): 98% | GI50 [21]: 1.38 µM | TGI [21]: 7.24E−6 | Percent Growth ([21]; Log10 Concentration −4.0): −38% | Percent Growth ([21]; Log10 Concentration −5.0): −10% | Percent Growth ([21]; Log10 Concentration −6.0): 60% | Percent Growth ([21]; Log10 Concentration −7.0): 87% | Percent Growth ([21]; Log10 Concentration −8.0): 94%
